From patent publication US11447505B1, “Pyrrolo[2,3-b]pyridine compounds and their use in the treatment of cancer” (priority 2017, dated 2022)
Where two headings read alike, the source gives them in different places.

Legend:
[1] = target: MRCKα (Homo sapiens (Human), UniProt Q5VT25); experiment: MRCKα kinase assay (IMAP fluorescence polarization); format: biochemical
Source text: (§1) MRCKα, MRCKβ, ROCK1 and ROCK2 Kinase Assays

[2] = target: T1, ROCK1 (Homo sapiens (Human), UniProt Q13464); conditions: read-out: ROCK1 Average Ki; 1 μM ATP
T1 sequence (Q13464 2-1354 limits assumed): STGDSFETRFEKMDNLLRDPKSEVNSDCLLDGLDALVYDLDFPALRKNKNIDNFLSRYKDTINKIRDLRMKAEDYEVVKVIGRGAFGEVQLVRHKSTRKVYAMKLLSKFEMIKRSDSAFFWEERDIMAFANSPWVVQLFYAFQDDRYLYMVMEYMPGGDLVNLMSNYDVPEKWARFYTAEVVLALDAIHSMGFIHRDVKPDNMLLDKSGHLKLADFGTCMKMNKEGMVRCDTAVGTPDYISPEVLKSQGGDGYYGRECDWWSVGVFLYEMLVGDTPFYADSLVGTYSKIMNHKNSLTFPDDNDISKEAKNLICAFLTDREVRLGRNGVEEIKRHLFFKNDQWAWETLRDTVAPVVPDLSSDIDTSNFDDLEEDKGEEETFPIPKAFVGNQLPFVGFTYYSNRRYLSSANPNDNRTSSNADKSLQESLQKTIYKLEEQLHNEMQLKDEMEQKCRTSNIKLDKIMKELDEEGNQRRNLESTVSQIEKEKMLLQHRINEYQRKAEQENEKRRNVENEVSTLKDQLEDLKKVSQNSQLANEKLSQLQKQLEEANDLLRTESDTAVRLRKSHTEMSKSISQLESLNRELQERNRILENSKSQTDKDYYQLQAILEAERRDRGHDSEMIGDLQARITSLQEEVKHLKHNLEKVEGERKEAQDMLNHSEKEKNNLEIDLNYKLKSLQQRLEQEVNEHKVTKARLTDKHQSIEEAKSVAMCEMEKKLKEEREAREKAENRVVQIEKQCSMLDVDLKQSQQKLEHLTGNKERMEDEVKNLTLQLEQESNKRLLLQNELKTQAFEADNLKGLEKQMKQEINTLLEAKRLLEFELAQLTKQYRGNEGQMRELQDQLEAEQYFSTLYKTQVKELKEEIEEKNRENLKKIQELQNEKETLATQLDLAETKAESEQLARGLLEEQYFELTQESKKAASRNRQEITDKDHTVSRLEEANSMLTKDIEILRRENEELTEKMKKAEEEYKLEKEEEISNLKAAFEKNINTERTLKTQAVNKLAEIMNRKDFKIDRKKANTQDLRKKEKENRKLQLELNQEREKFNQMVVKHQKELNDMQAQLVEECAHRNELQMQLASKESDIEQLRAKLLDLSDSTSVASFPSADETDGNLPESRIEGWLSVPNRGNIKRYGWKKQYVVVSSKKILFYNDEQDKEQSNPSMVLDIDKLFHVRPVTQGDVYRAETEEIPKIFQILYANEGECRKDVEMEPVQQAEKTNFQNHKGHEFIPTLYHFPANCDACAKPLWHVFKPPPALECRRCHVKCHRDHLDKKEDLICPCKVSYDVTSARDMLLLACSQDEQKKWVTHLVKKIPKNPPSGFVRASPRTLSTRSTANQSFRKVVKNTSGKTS

[3] = target: ROCK2 (Homo sapiens (Human), UniProt O75116); experiment: ROCK2 kinase assay (IMAP fluorescence polarization); format: biochemical
ROCK2, sequence (O75116 whole entry, the tested form may be a part): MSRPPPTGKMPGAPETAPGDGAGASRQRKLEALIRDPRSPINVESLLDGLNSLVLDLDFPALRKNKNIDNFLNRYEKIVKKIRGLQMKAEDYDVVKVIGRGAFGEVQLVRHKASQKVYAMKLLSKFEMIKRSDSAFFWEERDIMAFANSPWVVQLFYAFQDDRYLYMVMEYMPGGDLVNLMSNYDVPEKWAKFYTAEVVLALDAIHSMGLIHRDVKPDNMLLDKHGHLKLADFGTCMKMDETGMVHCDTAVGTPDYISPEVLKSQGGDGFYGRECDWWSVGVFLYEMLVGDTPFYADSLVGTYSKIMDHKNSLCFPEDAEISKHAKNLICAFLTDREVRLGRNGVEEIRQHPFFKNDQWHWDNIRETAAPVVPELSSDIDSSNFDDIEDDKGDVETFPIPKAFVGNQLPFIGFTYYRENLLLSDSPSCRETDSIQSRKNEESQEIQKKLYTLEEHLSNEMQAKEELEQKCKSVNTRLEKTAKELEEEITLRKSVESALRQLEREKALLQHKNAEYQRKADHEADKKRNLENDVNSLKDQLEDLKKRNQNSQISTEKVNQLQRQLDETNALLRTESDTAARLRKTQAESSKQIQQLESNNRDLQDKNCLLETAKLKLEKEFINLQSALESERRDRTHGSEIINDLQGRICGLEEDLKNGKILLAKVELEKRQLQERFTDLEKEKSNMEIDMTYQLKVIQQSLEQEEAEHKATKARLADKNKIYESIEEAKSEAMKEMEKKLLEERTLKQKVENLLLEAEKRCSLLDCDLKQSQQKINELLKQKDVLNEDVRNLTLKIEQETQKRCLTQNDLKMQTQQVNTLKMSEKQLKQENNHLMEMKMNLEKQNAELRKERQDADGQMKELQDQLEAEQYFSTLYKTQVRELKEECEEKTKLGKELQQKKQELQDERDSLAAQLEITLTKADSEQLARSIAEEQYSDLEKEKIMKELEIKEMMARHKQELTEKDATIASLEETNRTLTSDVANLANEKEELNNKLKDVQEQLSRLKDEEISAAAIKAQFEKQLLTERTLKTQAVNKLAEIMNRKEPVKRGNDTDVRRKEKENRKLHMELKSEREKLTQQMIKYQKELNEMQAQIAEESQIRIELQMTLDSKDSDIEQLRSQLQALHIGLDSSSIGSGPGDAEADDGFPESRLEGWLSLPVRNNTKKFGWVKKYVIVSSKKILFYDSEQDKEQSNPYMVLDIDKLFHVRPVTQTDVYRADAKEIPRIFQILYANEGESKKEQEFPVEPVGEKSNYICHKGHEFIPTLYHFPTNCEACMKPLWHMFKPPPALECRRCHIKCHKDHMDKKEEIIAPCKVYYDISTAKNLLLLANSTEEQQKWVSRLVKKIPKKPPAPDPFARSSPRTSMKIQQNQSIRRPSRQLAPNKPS

[4] = target: T1, ROCK1; experiment: ROCK1 cellular assay (pMLC T18/S19 immunoblot, MDA-MB-231 cells with doxycycline inducible kinase domain); format: cell-based
Protocol: (§2) MRCKβ, ROCK1 and ROCK2 Cellular Assays
(§3) MDA-MB-231 cells expressing doxycycline inducible ROCK1, ROCK2 or MRCKβ kinase domains were plated at 1.1×10^5 cells per well of a 12 well plate. After 24 hours, cells were treated with 1 μg/ml doxycycline for 18 hours to induce kinase domain expression and then tested over a suitable concentration range with compounds of the invention for 60 minutes. Cells were then washed with PBS and lysed with Tris-SDS lysis Buffer (50 mM Tris-HCl pH7.4, 0.5% (v/v) SDS, 1×PhosStop Inhibitors (04 906 837 001; Roche) and 1×Complete Protease Inhibitors (04 693 124 001; Roche)). Whole cell lysates were clarified by passing through QIAshredder spin columns, separated by SDS-PAGE, and quantitative immunoblotting performed using a LI-COR Odyssey IR scanner to determine pMLC (T18/S19) and α-Tubulin levels.

[5] = target: T2, MRCKβ (Homo sapiens (Human), UniProt Q9Y5S2); experiment: MRCKβ cellular assay (pMLC T18/S19 immunoblot, MDA-MB-231 cells with doxycycline inducible kinase domain); format: cell-based
Protocol: as §2, §3

[6] = target: T2, MRCKβ; experiment: MRCKβ kinase assay (IMAP fluorescence polarization); format: biochemical
Source text: as §1

[7] = target: T1, ROCK1; experiment: biochemical
[8] = 1 μM ATP, read-out: MRCK-a Average Ki
[9] = 1 μM ATP, read-out: ROCK2 Average Ki
[10] = 1 μM ATP, read-out: MRCK-B Average Ki
[11] = MDA-MB-231 cells, doxycycline inducible kinase domain, 60 minutes, pMLC (T18/S19), read-out: Cellular assay - MRCK-b inhibition MEAN
[12] = MDA-MB-231 cells, doxycycline inducible kinase domain, 60 minutes, pMLC (T18/S19), read-out: Cellular assay - ROCK1 inhibition MEAN

MRCKα, sequence (Q5VT25 whole entry): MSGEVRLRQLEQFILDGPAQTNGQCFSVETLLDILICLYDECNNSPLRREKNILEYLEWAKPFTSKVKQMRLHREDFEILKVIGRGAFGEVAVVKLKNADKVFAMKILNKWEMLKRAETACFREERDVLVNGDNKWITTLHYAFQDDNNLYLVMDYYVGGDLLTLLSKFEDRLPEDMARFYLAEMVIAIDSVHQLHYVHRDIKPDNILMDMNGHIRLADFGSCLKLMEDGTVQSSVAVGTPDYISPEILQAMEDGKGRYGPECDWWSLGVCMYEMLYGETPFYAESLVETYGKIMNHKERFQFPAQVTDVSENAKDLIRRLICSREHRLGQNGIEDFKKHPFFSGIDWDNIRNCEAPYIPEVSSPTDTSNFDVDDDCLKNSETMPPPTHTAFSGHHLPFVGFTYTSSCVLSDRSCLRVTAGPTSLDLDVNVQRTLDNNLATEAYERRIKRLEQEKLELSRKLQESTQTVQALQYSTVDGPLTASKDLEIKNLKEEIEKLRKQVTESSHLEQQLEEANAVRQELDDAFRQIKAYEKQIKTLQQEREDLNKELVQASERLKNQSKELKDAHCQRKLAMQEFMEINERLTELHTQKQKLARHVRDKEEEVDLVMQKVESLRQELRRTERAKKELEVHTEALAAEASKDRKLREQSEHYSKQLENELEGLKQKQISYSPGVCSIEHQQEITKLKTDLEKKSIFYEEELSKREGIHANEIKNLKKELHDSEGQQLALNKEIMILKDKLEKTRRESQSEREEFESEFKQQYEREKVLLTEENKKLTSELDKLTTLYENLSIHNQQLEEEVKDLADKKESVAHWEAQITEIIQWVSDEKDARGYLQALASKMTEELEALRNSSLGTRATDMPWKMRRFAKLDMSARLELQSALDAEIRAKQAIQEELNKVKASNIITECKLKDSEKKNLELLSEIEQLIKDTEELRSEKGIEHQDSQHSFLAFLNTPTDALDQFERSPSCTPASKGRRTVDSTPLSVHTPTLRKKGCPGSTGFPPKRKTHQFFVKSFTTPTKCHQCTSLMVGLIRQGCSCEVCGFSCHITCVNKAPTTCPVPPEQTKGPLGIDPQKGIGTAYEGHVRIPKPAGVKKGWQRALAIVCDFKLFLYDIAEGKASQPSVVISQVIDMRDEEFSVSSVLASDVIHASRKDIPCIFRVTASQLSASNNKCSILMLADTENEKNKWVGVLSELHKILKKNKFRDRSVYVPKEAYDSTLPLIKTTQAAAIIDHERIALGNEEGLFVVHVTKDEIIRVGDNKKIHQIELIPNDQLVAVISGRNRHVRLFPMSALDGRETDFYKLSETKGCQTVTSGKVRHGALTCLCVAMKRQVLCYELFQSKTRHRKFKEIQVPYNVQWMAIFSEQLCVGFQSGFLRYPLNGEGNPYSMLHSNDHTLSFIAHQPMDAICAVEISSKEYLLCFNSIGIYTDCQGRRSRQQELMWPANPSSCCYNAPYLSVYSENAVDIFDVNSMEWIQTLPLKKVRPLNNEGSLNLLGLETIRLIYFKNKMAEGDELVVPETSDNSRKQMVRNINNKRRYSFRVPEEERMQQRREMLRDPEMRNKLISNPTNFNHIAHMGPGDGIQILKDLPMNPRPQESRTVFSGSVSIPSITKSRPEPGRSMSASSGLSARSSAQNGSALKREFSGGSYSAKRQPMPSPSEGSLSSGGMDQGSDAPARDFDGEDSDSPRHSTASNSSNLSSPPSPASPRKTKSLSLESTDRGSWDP

Compound	Ki [1, 8]	Ki [2]	Ki [3, 9]	Ki [6, 10]	Ki [7]	IC50 [5, 11]	IC50 [4, 12]	IC50 [4]	IC50 [5]	Ki [1]	Ki [3]	Ki [6]
CCN1CCCCC12CCCN(c1ccnc3[nH]cc(C#N)c13)C2 (stereo not shown) [Example E211, 4-(1-ethyl-1,8-diazaspiro[5.5]undecan-8-yl)-1H-pyrrolo[2,3-b]pyridine-3-carbonitrile]	0.631 nM	245 nM	34.3 nM	0.351 nM				> 30000 nM	952 nM			
c1csc(-c2c[nH]c3nccc(N4CC[C@@]5(CCCCN5)C4)c23)n1 [Example E133, 2-[4-[(5S)-2,6-diazaspiro[4.5]decan-2-yl]-1H-pyrrolo[2,3-b]pyridin-3-yl]thiazole]					25.9 nM				108 nM	0.0149 nM	6.41 nM	0.03 nM
c1csc(-c2c[nH]c3nccc(N4CC[C@@]5(CCCN5)C4)c23)n1 [Example E134, 2-[4-[(5S)-1,7-diazaspiro[4.4]nonan-7-yl]-1H-pyrrolo[2,3-b]pyridin-3-yl]thiazole]					111 nM			> 30000 nM	787 nM	0.19 nM	30 nM	0.303 nM
c1cc(-c2c[nH]c3nccc(N4CC[C@@]5(CCCCN5)C4)c23)ncn1 [Example E128, (5S)-2-(3-pyrimidin-4-yl-1H-pyrrolo[2,3-b]pyridin-4-yl)-2,6-diazaspiro[4.5]decane]	0.0317 nM	10.6 nM	4.41 nM	0.0652 nM		420 nM						
c1cc(-c2c[nH]c3nccc(N4CCC[C@@]5(CCCCN5)C4)c23)cnn1 [Example E174, (6S)-8-(3-pyridazin-4-yl-1H-pyrrolo[2,3-b]pyridin-4-yl)-1,8-diazaspiro[5.5]undecane]				0.0256 nM	405 nM	50.9 nM	2250 nM					
c1csc(-c2c[nH]c3nccc(N4CCC5(CCCCN5)C4)c23)n1 (stereo not shown) [Example E155, 2-[4-(2,6-diazaspiro[4.5]decan-2-yl)-1H-pyrrolo[2,3-b]pyridin-3-yl]thiazole]					79.5 nM				218 nM			0.0822 nM
c1ncc(-c2c[nH]c3nccc(N4CCC[C@@]5(CCCCN5)C4)c23)cn1 [Example E122, (6S)-8-(3-pyrimidin-5-yl-1H-pyrrolo[2,3-b]pyridin-4-yl)-1,8-diazaspiro[5.5]undecane]	0.0284 nM		77.7 nM	0.585 nM	196 nM	101 nM	> 30000 nM					
c1cc(N2CCC3(CCCCN3)C2)c2c(-c3ncsn3)c[nH]c2n1 (stereo not shown) [Example E129, 3-[4-(2,6-diazaspiro[4.5]decan-2-yl)-1H-pyrrolo[2,3-b]pyridin-3-yl]-1,2,4-thiadiazole]					108 nM				729 nM	0.0518 nM	23.6 nM	0.206 nM
CN1CCCC[C@@]12CCCN(c1ccnc3[nH]cc(-c4ccncn4)c13)C2 [Example E206, (6S)-1-methyl-8-(3-pyrimidin-4-yl-1H-pyrrolo[2,3-b]pyridin-4-yl)-1,8-diazaspiro[5.5]undecane]	0.0189 nM	20.6 nM	4.19 nM	0.0277 nM		138 nM	> 30000 nM					
CC1(N)CCCN(c2ccnc3[nH]cc(-c4cncnc4)c23)C1 (stereo not shown) [Example E178, 3-methyl-1-(3-pyrimidin-5-yl-1H-pyrrolo[2,3-b]pyridin-4-yl)piperidin-3-amine]	0.517 nM	423 nM	119 nM	0.181 nM		622 nM						
Cc1cnc(-c2c[nH]c3nccc(N4CCC[C@@]5(CCCCN5)C4)c23)s1 [Example E146, 2-[4-[(6S)-1,8-diazaspiro[5.5]undecan-8-yl]-1H-pyrrolo[2,3-b]pyridin-3-yl]-5-methyl-thiazole]	0.0493 nM		100 nM	0.0539 nM	203 nM	150 nM	> 30000 nM					
CCN1CCCC[C@@]12CCCN(c1ccnc3[nH]cc(-c4ccncn4)c13)C2 [Example E207, (6S)-1-ethyl-8-(3-pyrimidin-4-yl-1H-pyrrolo[2,3-b]pyridin-4-yl)-1,8-diazaspiro[5.5]undecane]	0.0275 nM	20 nM	8.34 nM	0.0395 nM		170 nM	> 30000 nM					
CN[C@H]1CCCN(c2ccnc3[nH]cc(-c4nccs4)c23)C1 [Example E47, (3S)-N-methyl-1-(3-thiazol-2-yl-1H-pyrrolo[2,3-b]pyridin-4-yl)piperidin-3-amine]	0.158 nM		103 nM	0.304 nM	595 nM	1530 nM						
CN[C@H]1CCCN(c2ccnc3[nH]cc(-c4ccncn4)c23)C1 [Example E66, (3S)-N-methyl-1-(3-pyrimidin-4-yl-1H-pyrrolo[2,3-b]pyridin-4-yl)piperidin-3-amine]	0.238 nM		99.2 nM	0.17 nM	241 nM	1780 nM						
N#Cc1c[nH]c2nccc(N3CCC[C@@]4(CCCCN4)C3)c12 [Example E187, 4-[(6S)-1,8-diazaspiro[5.5]undecan-8-yl]-1H-pyrrolo[2,3-b]pyridine-3-carbonitrile]	0.249 nM	152 nM	44.2 nM	0.179 nM				> 30000 nM	782 nM			
3-ethyl-1-[3-(5-methylthiazol-2-yl)-1H-pyrrolo[2,3-b]pyridin-4-yl]piperidin-3-amine [Example E177]	0.0822 nM	33.7 nM	96.2 nM	0.0888 nM		274 nM	> 30000 nM					

Now from value to compound, other results behind:

Ki [1, 8]	Ki [2]	Ki [3, 9]	Ki [6, 10]	Ki [7]	IC50 [5, 11]	IC50 [4, 12]	Compound	IC50 [4]	IC50 [5]	Ki [1]	Ki [3]	Ki [6]
0.0934 nM		42 nM	0.0923 nM	67.1 nM	255 nM		CC1(N)CCCN(c2ccnc3[nH]cc(-c4nccs4)c23)C1 (stereo not shown) [Example E176, 3-methyl-1-(3-thiazol-2-yl-1H-pyrrolo[2,3-b]pyridin-4-yl)piperidin-3-amine]					
0.17 nM		165 nM	0.1 nM	564 nM	612 nM		Fc1ccc(-c2c[nH]c3nccc(N4CCCC5(CCCCN5)C4)c23)nc1 (stereo not shown) [Example E170, 8-[3-(5-fluoro-2-pyridyl)-1H-pyrrolo[2,3-b]pyridin-4-yl]-1,8-diazaspiro[5.5]undecane]					
0.0435 nM	99.1 nM	41 nM	0.0391 nM		107 nM	> 30000 nM	c1ccc(-c2c[nH]c3nccc(N4CCC[C@@]5(CCCCN5)C4)c23)nc1 [Example E139, (6S)-8-[3-(2-pyridyl)-1H-pyrrolo[2,3-b]pyridin-4-yl]-1,8-diazaspiro[5.5]undecane]					
0.0683 nM		6.42 nM	0.0813 nM	18.3 nM	40.5 nM		c1cc(N2CCCC3(CCCCN3)C2)c2c(-c3cnsc3)c[nH]c2n1 (stereo not shown) [Example E114, 4-[4-(1,8-diazaspiro[5.5]undecan-8-yl)-1H-pyrrolo[2,3-b]pyridin-3-yl]isothiazole]					
0.322 nM		233 nM	0.238 nM	11.9 nM	1540 nM		c1cc(-c2c[nH]c3nccc(N4CCC[C@H](NC5CC5)C4)c23)cnn1 [Example E46, (3S)-N-cyclopropyl-1-(3-pyridazin-4-yl-1H-pyrrolo[2,3-b]pyridin-4-yl)piperidin-3-amine]					
0.101 nM		29.9 nM	0.0389 nM	127 nM	109 nM	> 30000 nM	CCN1CCCCC12CCCN(c1ccnc3[nH]cc(-c4nccs4)c13)C2 (stereo not shown) [Example E209, 2-[4-(1-ethyl-1,8-diazaspiro[5.5]undecan-8-yl)-1H-pyrrolo[2,3-b]pyridin-3-yl]thiazole]					
0.189 nM		261 nM	0.106 nM	861 nM	732 nM		Fc1cccnc1-c1c[nH]c2nccc(N3CCCC4(CCCCN4)C3)c12 (stereo not shown) [Example E169, 8-[3-(3-fluoro-2-pyridyl)-1H-pyrrolo[2,3-b]pyridin-4-yl]-1,8-diazaspiro[5.5]undecane]					
0.0413 nM	68.3 nM	23.1 nM	0.057 nM		1270 nM	> 30000 nM	c1ncc(-c2c[nH]c3nccc(N4CC[C@@]5(CCCCN5)C4)c23)cn1 [Example E126, (5S)-2-(3-pyrimidin-5-yl-1H-pyrrolo[2,3-b]pyridin-4-yl)-2,6-diazaspiro[4.5]decane]					
0.0639 nM		85.2 nM	0.0648 nM	207 nM	233 nM		Fc1cncc(-c2c[nH]c3nccc(N4CCCC5(CCCCN5)C4)c23)c1 (stereo not shown) [Example E171, 8-[3-(5-fluoro-3-pyridyl)-1H-pyrrolo[2,3-b]pyridin-4-yl]-1,8-diazaspiro[5.5]undecane]					
